Data from patent US20250009766A1, “CA[…] TREATMENT OF SEIZURES AND EPILEPSY” (The Regents of the University of California, priority 2021, published 2025).
“Also recorded” adds a separate entry of the source.

Assays:
Format in all cases: in vivo
male CF1 mice [1] = assay: Mouse maximal electroshock (MES) test, male CF1 mice; conditions: for Percentage protection from Tonic Hind limb Extension: Male CF1 mice
Procedure: (§1) Animals. Male NIH Swiss or CF1 mice (Charles-Rivers, 22-34g) were used in the present study. In most of the experiments, male CF1 mice were used. In the experiment exploring the strain difference between CBD and CBG efficacy in the MES test, these compounds were also tested in male NIH Swiss mice. All experiments involving animals complied with the ARRIVE guidelines of the National Centre for the Replacement, Refinement, and Reduction of Animals in Research and were performed in accordance with the National Institutes of Health Guide for the Care and Use of Laboratory Animals (NIH publication No. 8023, revised in 1978) under protocols approved by the University of California, Davis, Institutional Animal Care and Use Committee.
(§2) All the cannabinoids were prepared in ethanol: Cremophor: saline in the ratio of 2:1:17. These were administered Intraperitoneally (IP) in a dose volume of 10 ml/kg.
(§3) Mouse maximal electroshock test. Samples of CBD, both from decarboxylation of cannabidiolic acid (CBDA) and a commercial source, were tested in parallel as a comparator. Samples of CBD and CBG were prepared by decarboxylating their respective active precursors CBDA and cannabigerolic acid (CBGA; 95+% pure) by heating at 102° C. (215° F.) for 60 min. The precursor compounds were isolated from hemp. For comparison, the antiseizure activity of pure, commercial, hemp-derived CBD and chemically synthesized CBG in crystalline form was also determined in the MES test. Also investigated was whether CBDA and CBGA have antiseizure potential at the highest dose tested (150 mg/kg) in this model. Male CF1 mice were used in the current study. Sixty min after IP injection of the cannabinoids, the animals were subjected to a 0.2-s, 60-Hz, 50-mA electrical stimulus delivered with corneal electrodes (5 mm diameter stainless steel balls) wetted with 0.9% saline. Animals failing to show THLE were scored as protected. In the time-response curve experiment, CBG was administered at different times before the MES test. In most of the experiments, male CF1 mice were used. In the experiment exploring the strain difference between CBD and CBG efficacy in the MES test, these compounds were additionally tested in male NIH Swiss mice.

male NIH Swiss mice = assay: Mouse maximal electroshock (MES) test, male NIH Swiss mice (strain difference); conditions: for Percentage protection from Tonic Hind limb Extension: Male NIH Swiss mice; for effect in MES test: male NIH Swiss mice
Procedure: as §1, §2, §3

male CF1 mice [2] = assay: Mouse pentylenetetrazol (PTZ) test
Procedure: as §1, §2
Mouse pentylenetetrazol (PTZ) test. Sixty min after IP injection of either cannabidiol (CBD) or cannabigerol (CBG) in male CF1 mice, the animals were challenged with 80 or 100 mg/kg PTZ delivered via intraperitoneal (IP) route of administration. The onset of myoclonic jerks, generalized clonus, tonus/tonic extension, and mortality was observed. The percentage of animals was further calculated that underwent these phases caused by PTZ. Failure to observe such phases or delayed onset is considered as protection.

[3] = 100 mg/kg IP, 60 min before MES, male CF1 mice
[4] = 150 mg/kg IP, 60 min before MES, male CF1 mice
[5] = 200 mg/kg IP, 60 min before MES, male CF1 mice
[6] = male CF1 mice, IP, 60 min before MES
[7] = protection from THLE, male CF1 mice, IP, 60 min before MES
[8] = 50 mg/kg IP, 60 min before MES, male CF1 mice
[9] = dose 100, 1 h before MES (0.2-s, 60-Hz, 50-mA)
[10] = dose 150, 1 h before MES (0.2-s, 60-Hz, 50-mA)
[11] = PTZ 80 mg/kg IP, treatment 100 mg/kg IP 1 h before
[12] = PTZ 80 mg/kg IP, treatment 150 mg/kg IP 1 h before
[13] = PTZ 100 mg/kg IP, treatment 150 mg/kg IP 1 h before
[14] = high dose PTZ test (100 mg/kg), treatment 150 mg/kg IP

CCCCCc1cc(O)c(C/C=C(\C)CCC=C(C)C)c(O)c1 [cannabigerol]
Percentage Protection (male CF1 mice [1]; [3]): 62.5% | Percentage Protection (male CF1 mice [1]; [4]): 75% | Percentage Protection (male CF1 mice [1]; [5]): 62.5%

CCCCCc1cc(O)c(C/C=C(\C)CCC=C(C)C)c(O)c1 [CBG obtained from CBGA, cannabigerol]
doses at which animals were protected from THLE (male CF1 mice [1]; [6]): 65 to 200 mg/kg | ED50 (male CF1 mice [1]; [7]): 99 ± 7.01 mg/kg

C=C(C)[C@@H]1CCC(C)=C[C@H]1c1c(O)cc(CCCCC)cc1O [Crystalline hemp derived CBD, cannabidiol]
Percentage Protection (male CF1 mice [1]; [8]): 0% | Percentage Protection (male CF1 mice [1]; 65 mg/kg IP, 60 min before MES, male CF1 mice): 37.5% | Percentage Protection (male CF1 mice [1]; 75 mg/kg IP, 60 min before MES, male CF1 mice): 37.5% | Percentage Protection (male CF1 mice [1]; 85 mg/kg IP, 60 min before MES, male CF1 mice): 50% | Percentage Protection (male CF1 mice [1]; [3]): 75% | Percentage Protection (male CF1 mice [1]; [4]): 75% | ED50 (mg/kg, IP) (male CF1 mice [1]; protection from THLE, male CF1 mice, IP, 60 min before MES, listed as commercial CBD): 83.7 ± 5.7 mg/kg

CCCCCc1cc(O)c2c(c1)OC(C)(CCC=C(C)C)C=C2 (stereo not drawn) [CBC oil, cannabichromene]
Percentage Protection (male CF1 mice [1]; [8]): 11.1% | Percentage Protection (male CF1 mice [1]; [3]): 12.5% | Percentage Protection (male CF1 mice [1]; [4]): 12.5% | Percentage Protection (male CF1 mice [1]; [5]): 25% | fraction of animals protected (male CF1 mice [1]; 250 mg/kg IP, 60 min before MES, male CF1 mice): 25% | potency relative to CBD and CBG in MES test (male CF1 mice [1]; [6]): less potent than CBD and CBG

CCCCCc1cc(O)c(C/C=C(\C)CCC=C(C)C)c(O)c1 [CBG, cannabigerol]
Percentage protection from Tonic Hind limb Extension (male CF1 mice [1]; [9]): 62.5% | Percentage protection from Tonic Hind limb Extension (male CF1 mice [1]; [10]): 75% | effect in MES test (male CF1 mice [1]; male CF1 mice): protected animals from Tonic Hindlimb Extension (THLE); also recorded: effective | time of maximum response (protection from THLE) after administration (male CF1 mice [1]; single IP injection of 100 mg/kg, male CF1 mice, tested 15-240 min): 60 to 120 min | Percentage protection from Tonic Hind limb Extension (male NIH Swiss mice; [9]): 12.5% | Percentage protection from Tonic Hind limb Extension (male NIH Swiss mice; [10]): 12.5% | effect in MES test (male NIH Swiss mice): not protective | Death time (s) (male CF1 mice [2]; [11]): None | Onset of generalized clonus (male CF1 mice [2]; [11]): 199.1 ± 90.6 s | Onset of jerks (male CF1 mice [2]; [11]): 101.1 ± 50.7 s | Onset of tonus (s) (male CF1 mice [2]; [11]): None | Percentage animals having generalized clonus (male CF1 mice [2]; [11]): 87.5% | Percentage animals having tonus (male CF1 mice [2]; [11]): None | Percentage mortality (male CF1 mice [2]; [11]): 0% | Percentage of animals having myoclonic jerks (male CF1 mice [2]; [11]): 87.5% | Death time (s) (male CF1 mice [2]; [12]): None | Onset of generalized clonus (male CF1 mice [2]; [12]): 117.8 ± 46.8 s | Onset of jerks (male CF1 mice [2]; [12]): 93 ± 26.6 s | Onset of tonus (male CF1 mice [2]; [12]): 852.5 ± 170.5 s | Percentage animals having generalized clonus (male CF1 mice [2]; [12]): 62.5% | Percentage animals having tonus (male CF1 mice [2]; [12]): 25% | Percentage mortality (male CF1 mice [2]; [12]): 0% | Percentage of animals having myoclonic jerks (male CF1 mice [2]; [12]): 100% | Death time (male CF1 mice [2]; [13]): 1082.6 ± 265.5 s | Onset of generalized clonus (male CF1 mice [2]; [13]): 200.8 ± 105.9 s | Onset of jerks (male CF1 mice [2]; [13]): 50.1 ± 3.3 s | Onset of tonus (male CF1 mice [2]; [13]): 1351.3 ± 410.7 s | Percentage animals having generalized clonus (male CF1 mice [2]; [13]): 100% | Percentage animals having tonus (male CF1 mice [2]; [13]): 100% | Percentage mortality (male CF1 mice [2]; [13]): 62.5% | Percentage of animals having myoclonic jerks (male CF1 mice [2]; [13]): 100% | overall effect in PTZ seizure test (male CF1 mice [2]; PTZ IP, male CF1 mice): had no effect | protection from mortality (male CF1 mice [2]; high dose PTZ): protected some animals from mortality

C=C(C)[C@@H]1CCC(C)=C[C@H]1c1c(O)cc(CCCCC)cc1O [CBD obtained from CBDA isolates, cannabidiol]
doses at which animals were protected from THLE (male CF1 mice [1]; [6]): 25 to 150 mg/kg | ED50 (mg/kg, IP) (male CF1 mice [1]; [7]): 62.7 ± 5.6 mg/kg

CCCCCc1cc(O)c(C/C=C(\C)CCC=C(C)C)c(O)c1C(=O)O [Cannabigerolic acid (CBGA), cannabigerolic acid]
Percentage Protection (male CF1 mice [1]; [4]): 25%

C=C(C)[C@@H]1CCC(C)=C[C@H]1c1c(O)cc(CCCCC)c(C(=O)O)c1O [Cannabidiolic acid (CBDA), cannabidiolic acid]
Percentage Protection (male CF1 mice [1]; [4]): 0% | antiseizure activity (male CF1 mice [1]; highest dose tested (150 mg/kg), male CF1 mice): no antiseizure activity

C=C(C)[C@@H]1CCC(C)=C[C@H]1c1c(O)cc(CCCCC)cc1O [CBD, cannabidiol]
Percentage protection from Tonic Hind limb Extension (male CF1 mice [1]; [9]): 100% | Percentage protection from Tonic Hind limb Extension (male CF1 mice [1]; [10]): 100% | effect in MES test (male CF1 mice [1]; male CF1 mice): protected animals from Tonic Hindlimb Extension (THLE); also recorded: effective | Percentage protection from Tonic Hind limb Extension (male NIH Swiss mice; [9]): 12.5% | Percentage protection from Tonic Hind limb Extension (male NIH Swiss mice; [10]): 12.5% | effect in MES test (male NIH Swiss mice): not protective | Death time (s) (male CF1 mice [2]; [11]): None | Onset of generalized clonus (male CF1 mice [2]; [11]): 333.9 ± 174.3 s | Onset of jerks (male CF1 mice [2]; [11]): 138.1 ± 61.9 s | Onset of tonus (s) (male CF1 mice [2]; [11]): None | Percentage animals having generalized clonus (male CF1 mice [2]; [11]): 87.5% | Percentage animals having tonus (male CF1 mice [2]; [11]): None | Percentage mortality (male CF1 mice [2]; [11]): 0% | Percentage of animals having myoclonic jerks (male CF1 mice [2]; [11]): 100% | Death time (s) (male CF1 mice [2]; [12]): None | Onset of generalized clonus (male CF1 mice [2]; [12]): 612.5 ± 515.5 s | Onset of jerks (male CF1 mice [2]; [12]): 95.6 ± 13.3 s | Onset of tonus (s) (male CF1 mice [2]; [12]): None | Percentage animals having generalized clonus (male CF1 mice [2]; [12]): 25% | Percentage animals having tonus (male CF1 mice [2]; [12]): None | Percentage mortality (male CF1 mice [2]; [12]): 0% | Percentage of animals having myoclonic jerks (male CF1 mice [2]; [12]): 100% | Death time (s) (male CF1 mice [2]; [13]): None | Onset of generalized clonus (male CF1 mice [2]; [13]): 329.3 ± 152.3 s | Onset of jerks (male CF1 mice [2]; [13]): 63.6 ± 4.8 s | Onset of tonus (male CF1 mice [2]; [13]): 1362.5 ± 888.5 s | Percentage animals having generalized clonus (male CF1 mice [2]; [13]): 100% | Percentage animals having tonus (male CF1 mice [2]; [13]): 25% | Percentage mortality (male CF1 mice [2]; [13]): 0% | Percentage of animals having myoclonic jerks (male CF1 mice [2]; [13]): 100% | effect on generalized clonus (male CF1 mice [2]; high dose PTZ test (100 mg/kg)): no difference | latency to onset of myoclonic jerks (male CF1 mice [2]; [14]): increased the latency to onset of myoclonic jerks | protection from tonus phase and mortality (male CF1 mice [2]; [14]): protected animals from undergoing tonus phase and mortality | protection from generalized clonus (male CF1 mice [2]; low dose PTZ test (80 mg/kg, IP), treatment 150 mg/kg IP): effective in protecting animals from generalized clonus
